The values that follow come from patent US20110190235A1, “BORON-CONTAINING SMALL MOLECULES AS ANTIPROTOZOAL AGENTS” (Anacor Pharmaceuticals, Inc., priority 2009, published 2011).

Data set [1] can be described thus: L929 cytotoxicity evaluation (resazurin). The conditions noted are these: mouse, 72 hrs incubation, read-out: Cytotox L-929 IC50. It is filed as cell-based. As to the method:
For evaluation of compound effects on mammalian cells, L929 mouse fibroblast cells were used. Cells were maintained as adherent cultures in T-25 vented cap flasks in a humidified incubator at 37° C. in the presence of 5% CO2. Culture media was D-MEM supplemented with 10% fetal bovine serum and 1% penicillin/streptomycin. L929 cells were maintained below confluent levels by sub-culturing at 1:10 dilution twice weekly using 0.05% trypsin for detachment.
Sub-confluent L929 cells were trypsinized, resuspended in fresh media and 10 uL was counted using hemocytometer to determine cell concentration. Cells were diluted to 1×10^4/mL in DMEM, dispensed (100 uL) into 96-well plates using a Multidrop 384 dispenser and allowed to attach overnight. Spent media was replaced with 99.5 uL fresh D-MEM and compounds to be tested were serially diluted in DMSO and 0.5 uL added using a Biomek NX liquid handler. Plates were incubated with compounds for 72 hrs at 37° C. with 5% CO2. Resazurin (20 uL of 12.5 mg/ml stock) from Sigma-Aldrich was added to each well and plates were incubated for an additional 3-4 hrs. Assay plates were read using an EnVision plate reader at an excitation wavelength of 544 nm and emission of 590 nm. Single data points were used to generate sigmoidal dose response curves and determine IC50 values using XLfit curve fitting software from IDBS (Guildford, UK).
(Resazurin is reduced to fluorescent resorufin, in cell work by metabolically active cells.)

Data set [2] relates to bloodstream-form trypanosome T. brucei brucei 427 strain. In words: Trypanosoma brucei brucei high-throughput in vitro drug sensitivity assay (resazurin). It is filed as cell-based. The settings on record: for IC50: Trypanosoma brucei.
Setting [3] is: 72 hrs incubation, read-out: T.b. brucei IC50.

Values after ≈ are worked out from the molar mass of the structure shown. Read-outs that look alike come from different tables or passages of the source. Some results are limits rather than exact numbers.

In the case of `CC1(C)OB(O)c2cc(NC(=O)c3c(C(F)(F)F)ccc(Cl)c3F)ccc21` [compound 109, 3-Chloro-2-fluoro-N-(1-hydroxy-3,3-dimethyl-1,3-dihydro-benzo[c][1,2]oxaborol-6-yl)-6-trifluoromethyl-benzamide], in data set [1] (L929 mouse fibroblast cells), the IC50 at 72 h is over 10 µg/mL. In addition, the IC50 in data set [2] (setting [3]) is 0.379 µg/mL.
`CC1(C)OB(O)c2cc(NC(=O)c3cc[nH]n3)ccc21` [compound 123, 1H-Pyrazole-3-carboxylic acid (1-hydroxy-3,3-dimethyl-1,3-dihydro-benzo[c][1,2]oxaborol-6-yl)-amide]: the IC50 at 72 h in data set [1] (L929 mouse fibroblast cells) was over 10 µg/mL. In data set [2] (setting [3]), the IC50 is over 5 µg/mL.
Consider `COc1cccc(C(=O)Nc2ccc3c(c2)B(O)OC3(C)C)c1` [compound 47, N-(1-Hydroxy-3,3-dimethyl-1,3-dihydro-benzo[c][1,2]oxaborol-6-yl)-3-methoxy-benzamide], for which the IC50 at 72 h in data set [1] (L929 mouse fibroblast cells) is over 10 µg/mL. The IC50 in data set [2] (setting [3]) worked out at 2.35 µg/mL.
With `CC1(C)OB(O)c2cc(NC(=O)c3cccc4cccnc34)ccc21` [compound 113, Quinoline-8-carboxylic acid (1-hydroxy-3,3-dimethyl-1,3-dihydro-benzo[c][1,2]oxaborol-6-yl)-amide], the IC50 at 72 h in data set [1] (L929 mouse fibroblast cells) was over 10 µg/mL. For the same compound, in data set [2] (setting [3]), the IC50 was over 5 µg/mL.
`CC1(C)OB(O)c2cc(NC(=O)c3cc(C(F)(F)F)ccc3Cl)ccc21` [compound 90, 2-Chloro-N-(1-hydroxy-3,3-dimethyl-1,3-dihydro-benzo[c][1,2]oxaborol-6-yl)-5-trifluoromethyl-benzamide]: in data set [1] (L929 mouse fibroblast cells), the IC50 at 72 h was over 10 µg/mL. Also, in data set [2] (setting [3]), the IC50 was 0.514 µg/mL.
For `C=C(C)c1ccc(C(=O)Nc2ccc3c(c2)B(O)OC3(C)C)c(Cl)c1` [compound 100, 2-Chloro-N-(1-hydroxy-3,3-dimethyl-1,3-dihydro-benzo[c][1,2]oxaborol-6-yl)-4-isopropenyl-benzamide], in that order: 9.55 µg/mL (≈ 26.9 µM) and 0.077 µg/mL.
On to `Cc1ccc(C(=O)Nc2ccc3c(c2)B(O)OC3(C)C)cc1` [compound 29, N-(1-Hydroxy-3,3-dimethyl-1,3-dihydro-benzo[c][1,2]oxaborol-6-yl)-4-methyl-benzamide], for which the IC50 at 72 h in data set [1] (L929 mouse fibroblast cells) is over 10 µg/mL. Further, in data set [2] (setting [3]), the IC50 was 3.62 µg/mL.
Consider `CC1(C)OB(O)c2cc(NC(=O)C(F)(F)C(F)(F)C(F)(F)F)ccc21` [compound 131, 2,2,3,3,4,4,4-Heptafluoro-N-(1-hydroxy-3,3-dimethyl-1,3-dihydro-benzo[c][1,2]oxaborol-6-yl)-butyramide], for which the IC50 at 72 h in data set [1] is over 10 µg/mL. Further, in data set [2] (72 h, read-out: T.b. brucei IC50 (ug/mL)), the IC50 was over 5 µg/mL.
`CC(C)=Cc1ccc(C(=O)Nc2ccc3c(c2)B(O)OC3(C)C)c(Cl)c1` [compound 99, 2-Chloro-N-(1-hydroxy-3,3-dimethyl-1,3-dihydro-benzo[c][1,2]oxaborol-6-yl)-4-(2-methyl-propenyl)-benzamide]: the IC50 at 72 h in data set [1] (L929 mouse fibroblast cells) was determined as 8.6 µg/mL (≈ 23.3 µM). In data set [2] (setting [3]), the IC50 came to 0.19 µg/mL.
For the compound `Cc1ccc(C(=O)Nc2ccc3c(c2)B(O)OC3(C)C)c(Cl)n1` [compound 118], the IC50 at 72 h in data set [1] (L929 mouse fibroblast cells) is over 10 µg/mL. In data set [2] (setting [3]), the IC50 came to 0.814 µg/mL.
On to `Cc1ccccc1C(=O)Nc1ccc2c(c1)B(O)OC2(C)C` [compound 27, N-(1-Hydroxy-3,3-dimethyl-1,3-dihydro-benzo[c][1,2]oxaborol-6-yl)-2-methylbenzamide], for which the IC50 at 72 h in data set [1] (L929 mouse fibroblast cells) was over 10 µg/mL. The IC50 in data set [2] (setting [3]) came to 2.24 µg/mL.
For `CC1(C)OB(O)c2cc(NC(=O)c3cccc(F)c3)ccc21` [compound 41, 3-Fluoro-N-(1-hydroxy-3,3-dimethyl-1,3-dihydro-benzo[c][1,2]oxaborol-6-yl)-benzamide], in that order: over 10 µg/mL and over 5 µg/mL.
Take `CC(=O)Nc1ccc2c(c1)B(O)OC2(C)C` [compound 130, N-(1-Hydroxy-3,3-dimethyl-1,3-dihydro-benzo[c][1,2]oxaborol-6-yl)-acetamide]: in data set [1] (L929 mouse fibroblast cells), the IC50 at 72 h was over 10 µg/mL. For the same compound, the IC50 in data set [2] (setting [3]) was over 5 µg/mL.
On to `CC1OB(O)c2cc(NC(=O)c3cccc(F)c3)ccc21` (centres unmarked) [compound 10, 3-Fluoro-N-(1-hydroxy-3-methyl-1,3-dihydro-benzo[c][1,2]oxaborol-6-yl)-benzamide], for which the IC50 at 72 h in data set [1] (L929 mouse fibroblast cells) was over 10 µg/mL. In addition, in data set [2] (T. b. brucei vs L929), the “Selectivity Index (L929 IC50 / T. b. brucei IC50)” value is over 207. The IC50 turned out to be 130 nM in data set [2] (72 hrs incubation, read-out: T. b. brucei IC50) and 0.037 µg/mL in data set [2] (setting [3]).
Consider `CC1(C)OB(O)c2cc(NC(=O)c3ccc(Cl)cc3F)ccc21` [compound 71, 4-Chloro-2-fluoro-N-(1-hydroxy-3,3-dimethyl-1,3-dihydro-benzo[c][1,2]oxaborol-6-yl)-benzamide], for which, in data set [1] (L929 mouse fibroblast cells), the IC50 at 72 h was over 10 µg/mL. In addition, in data set [2] (setting [3]), the IC50 came out at 0.697 µg/mL.
Consider `CC1(C)OB(O)c2cc(NC(=O)c3cccc(Cl)c3Cl)ccc21` [compound 66, 2,3-Dichloro-N-(1-hydroxy-3,3-dimethyl-1,3-dihydro-benzo[c][1,2]oxaborol-6-yl)-benzamide], for which the IC50 at 72 h in data set [1] (L929 mouse fibroblast cells) is over 10 µg/mL. Also, the IC50 in data set [2] (setting [3]) was 0.292 µg/mL.
As for `CC1(C)OB(O)c2cc(NC(=O)c3cc(C(F)(F)F)ccc3F)ccc21` [compound 85, 2-Fluoro-N-(1-hydroxy-3,3-dimethyl-1,3-dihydro-benzo[c][1,2]oxaborol-6-yl)-5-trifluoromethyl-benzamide], in data set [1] (L929 mouse fibroblast cells), the IC50 at 72 h was over 10 µg/mL. In addition, the IC50 in data set [2] (setting [3]) was found to be 1.14 µg/mL.
For `CC1(C)OB(O)c2cc(NC(=O)c3cc([N+](=O)[O-])ccc3Cl)ccc21` [compound 92], in that order: 2.68 µg/mL (≈ 7.43 µM) and 0.158 µg/mL.
For `CC1(C)OB(O)c2cc(NC(=O)c3ccc4ccccc4n3)ccc21` [compound 117, Quinoline-2-carboxylic acid (1-hydroxy-3,3-dimethyl-1,3-dihydro-benzo[c][1,2]oxaborol-6-yl)-amide], in data set [1] (L929 mouse fibroblast cells), the IC50 at 72 h was over 10 µg/mL. Moreover, the IC50 in data set [2] (setting [3]) stood at 1.55 µg/mL.
For `CC1(C)OB(O)c2cc(NC(=O)c3cc(C(F)(F)F)cc(C(F)(F)F)c3)ccc21` [compound 80, N-(1-Hydroxy-3,3-dimethyl-1,3-dihydro-benzo[c][1,2]oxaborol-6-yl)-3,5-bis-trifluoromethyl-benzamide], in that order: over 10 µg/mL and over 5 µg/mL.
`CC1(C)OB(O)c2cc(NC(=O)Cc3cccs3)ccc21` [compound 125, N-(1-Hydroxy-3,3-dimethyl-1,3-dihydro-benzo[c][1,2]oxaborol-6-yl)-2-thiophen-2-yl-acetamide]: the IC50 at 72 h in data set [1] (L929 mouse fibroblast cells) is over 10 µg/mL. For the same compound, in data set [2] (setting [3]), the IC50 is over 5 µg/mL.
For `CC1(C)OB(O)c2cc(NC(=O)c3cccc4ccccc34)ccc21` [compound 111, Naphthalene-1-carboxylic acid (1-hydroxy-3,3-dimethyl-1,3-dihydro-benzo[c][1,2]oxaborol-6-yl)-amide], in that order: over 10 µg/mL and 1.23 µg/mL.
Take `CC1(C)OB(O)c2cc(NC(=O)c3cccc(Br)c3)ccc21` [compound 43, 3-Bromo-N-(1-hydroxy-3,3-dimethyl-1,3-dihydro-benzo[c][1,2]oxaborol-6-yl)-benzamide]: the IC50 at 72 h in data set [1] (L929 mouse fibroblast cells) was over 10 µg/mL. In data set [2] (setting [3]), the IC50 turned out to be 2.2 µg/mL.
As for `Cc1occc1C(=O)Nc1ccc2c(c1)B(O)OC2(C)C` [compound 121, 2-Methyl-furan-3-carboxylic acid (1-hydroxy-3,3-dimethyl-1,3-dihydro-benzo[c][1,2]oxaborol-6-yl)-amide], in data set [1] (L929 mouse fibroblast cells), the IC50 at 72 h is over 10 µg/mL. In addition, in data set [2] (setting [3]), the IC50 is 3.2 µg/mL.
